# Patent US5686458A, “Quinazoline deriviates for treating peptic ulcer” (Yuhan Corporation, priority 1992, dated 1997)
# Key:
# [1] = system: gastric secretion; assay: Inhibition of Gastric Secretion, pylorus-ligated rats (Experiment 2); format: in vivo, Sprague-Dawley rats; conditions: relative to omeprazole (equation III), 20 mg/kg intraduodenally, pylorus-ligated rats, 5 hours
# Procedure, shortened: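 Sprague-Dawley rats (170±10 g, n=5/group), fasted 24 h, pylorus-ligated under ether; compounds given intraduodenally at 20 mg/kg in 30% aqueous PEG 400. Gastric juice collected after 5 h, volume and acidity measured; relative volume, acid concentration and acid output computed versus vehicle and omeprazole groups.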
# [2] = target: T1, H^+ /K^+ ATPase, gastric vesicles (Sus scrofa, UniProt P19156); assay: Reversibility of inhibition, Dilution and Washout method (Experiment 4-3); format: biochemical, pig; conditions: for Reversibility of the inhibition of the enzyme activity: conclusion from Table 4; for Inhibition of H+/K+ ATPase activity after Dilution and Washout: diluted 50 times; for Inhibition of H+/K+ ATPase activity after Dilution and Washout / Inhibition of H+/K+ ATPase activity before Dilution and Washout: pH 6.4, Example 34 at 6 μM, omeprazole and SK&F96067 at 60 μM
# T1 construct: Gastric vesicles were prepared from pig stomach; from tissue; host or cells: pig stomach, lyophilized gastric vesicles
# T1 sequence (P19156 2-1034 limits assumed): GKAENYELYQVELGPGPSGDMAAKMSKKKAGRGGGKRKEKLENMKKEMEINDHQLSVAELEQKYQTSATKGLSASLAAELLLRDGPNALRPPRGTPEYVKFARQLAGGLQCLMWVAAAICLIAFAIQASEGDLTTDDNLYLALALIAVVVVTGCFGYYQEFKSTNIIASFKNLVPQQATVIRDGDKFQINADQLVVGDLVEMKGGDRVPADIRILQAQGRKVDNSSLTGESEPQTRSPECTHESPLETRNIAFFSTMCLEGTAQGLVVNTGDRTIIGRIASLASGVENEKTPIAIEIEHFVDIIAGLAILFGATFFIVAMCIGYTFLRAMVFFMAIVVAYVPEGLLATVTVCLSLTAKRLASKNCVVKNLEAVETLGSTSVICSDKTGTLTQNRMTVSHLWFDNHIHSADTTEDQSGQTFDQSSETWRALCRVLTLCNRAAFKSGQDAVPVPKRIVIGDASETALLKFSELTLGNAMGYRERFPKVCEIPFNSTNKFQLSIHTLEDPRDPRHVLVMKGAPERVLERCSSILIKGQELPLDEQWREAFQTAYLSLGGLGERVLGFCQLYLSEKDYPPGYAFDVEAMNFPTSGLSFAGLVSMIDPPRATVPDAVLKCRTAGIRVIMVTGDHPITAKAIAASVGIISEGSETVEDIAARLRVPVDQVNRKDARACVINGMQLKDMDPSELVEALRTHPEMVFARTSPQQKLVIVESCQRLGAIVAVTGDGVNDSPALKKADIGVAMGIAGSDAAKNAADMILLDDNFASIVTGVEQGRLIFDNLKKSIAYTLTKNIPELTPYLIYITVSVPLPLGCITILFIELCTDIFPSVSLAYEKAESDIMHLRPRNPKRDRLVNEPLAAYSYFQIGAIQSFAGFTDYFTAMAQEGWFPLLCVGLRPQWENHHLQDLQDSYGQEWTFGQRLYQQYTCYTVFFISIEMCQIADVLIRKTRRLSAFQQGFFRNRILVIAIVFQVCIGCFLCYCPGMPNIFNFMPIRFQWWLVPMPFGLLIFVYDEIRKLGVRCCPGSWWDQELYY
# T1 sequence (P18434 whole entry partner): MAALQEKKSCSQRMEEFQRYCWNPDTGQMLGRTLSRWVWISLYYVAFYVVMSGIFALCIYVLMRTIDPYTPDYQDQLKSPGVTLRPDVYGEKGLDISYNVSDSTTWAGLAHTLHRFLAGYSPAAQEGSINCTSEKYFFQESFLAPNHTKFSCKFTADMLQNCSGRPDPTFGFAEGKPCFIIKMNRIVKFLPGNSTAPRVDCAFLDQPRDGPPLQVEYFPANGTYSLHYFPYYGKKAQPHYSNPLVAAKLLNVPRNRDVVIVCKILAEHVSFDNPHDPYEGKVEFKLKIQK
# Protocol: The vesicles were lyophilized and kept at -70° C.
# To all […] groups, was added 100 μl of lyophilized vesicles prepared in Experiment 4-1 at the concentration of 100 μg protein 1 ml. Then, 5 mM Pipes/Tris buffer(pH 6.4 ) was added to the three groups until the volume of test tubes became 150 μl. After the preincubation for 15 minutes, H^+ /K^+ ATPase activity was measured in accordance with the same procedures as in Experiment 4-2. The concentrations of the test substances as indicated above are the final concentrations.
# After the completion of preincubation, each group was diluted 50 times with 5 mM Pipes/Tris buffer(pH 6.4), and then centrifuged for 60 minutes by means of Beckman ultracentrifuge(Model L8-80). The supernatant was discarded and the pellet was suspended with 5 mM Pipes/Tris buffer pH 6.4 until the volume became the same as the preincubation volume.
# [3] = target: T2, H^+ /K^+ ATPase (proton pump), gastric vesicles (Sus scrofa, UniProt P19156); assay: Determination of H+/K+ ATPase activity, Lineweaver-Burk kinetics versus K+ (Experiment 4-2); format: biochemical, pig; conditions: for Competitive inhibition with K+ at the K+ binding site of proton pump: Lineweaver-Burk plot, KCl 0.1 to 30 mM
# T2 construct: Gastric vesicles were prepared from pig stomach; from tissue; host or cells: pig stomach, lyophilized gastric vesicles
# T2 sequence (P19156 2-1034 limits assumed): as the sequence (P19156 2-1034 limits assumed) above
# T2 sequence (P18434 whole entry partner): as the sequence (P18434 whole entry partner) above
# Protocol: Gastric vesicles were prepared from pig stomach by the method described in Saccomani G., et al., J. Biol. Chem. 250, 4802-4809 (1975). The vesicles were lyophilized and kept at -70° C. The protein content was determined by the method of Lowry et al., using bovine serum albumin as standard[see Lowry, O. H., Rosebrough, N. J. and Randall, R. J., J. Biol. Chem. 193, 265-275 (1951)].
# Test tubes were divided into 4 groups, each having 3 test tubes. As a control group, group 1 was added with the 10 μl of DMSO. Groups 2, 3 and 4 were administered with the compound prepared in example 34 whose final concentration are 0.17 μM, 0.33 μM and 0.67 μM, respectively. Each group was further divided into 3 small groups, in which enzymes were activated by ATP; ATP and Mg^++; and ATP, Mg^++ and K^+, respectively.
# To all of the test tubes, were added 100 μl of lyophilized vesicles prepared at the concentration of 25 μg protein/ml and then 90 μl of 5 mM Pipes/Tris buffer pH 7.0. The compound prepared in Example 34 was added to each Group until the final concentration thereof became 0.17, 0.33 or 0.67 μM, respectively, They were preincubated for 15 minutes.
# 50 μl of ATP(3 mM) was added to each of the four Groups and the 50 μl of MgCl2 (2 mM) was added only to the 2nd and 3rd small groups of all Groups. Further, to the 3rd small groups of all Groups, were added 50 μl of KCl solution of various concentrations(from 0.1 mM to 30 mM) and then 150μl of Pipes/Tris buffer of pH 7.0. To the rest small groups, Pipes/Tris buffer of pH 7.0 was added until the volume became the same as that of the 3rd small group.
# The test tube's were incubated at 37° C. for 30 minutes and then the reaction was terminated by adding 25% cold trichloroacetic acid solution. They were centrifuged by means of a microcentrifuge and the supernatant was taken up for the measurement of the released inorganic phosphate content by an automatic analyzer(CIBA CORNING, Express 550).
# In accordance with the same procedures as above, except that 15 and 30 μm of omeprazole and 0.75, 1.5 and 3.0 μm of SK&F96067 were used as comparative substances, released inorganic phosphate content was measured.
# The released inorganic phosphate contents of the three small groups were considered as the activity of H^+ /K^+ ATPase at each of the concentrations employed. The specific activity of H^+ /K^+ ATPase was calculated from the following equation:
# Specific activity=(A-C)-(B-C) . . . (V)
# A is the activity of enzyme activated by ATP, Mg^++ and , K^+ ;
# B is the activity of enzyme activated by ATP and M^++ and
# C is the activity of enzyme activated by ATP.
# The specific activity, thus calculated, of Groups 1, 2, 3 and 4 which employed DMSO and the compound of Example 34 at 3 different concentrations were then plotted with respect to the concentration of KCl in FIG. 1 according to the method of Lineweaver-Burk, wherein .box-solid., .quadrature. and .largecircle. represent the respective concentrations of the compound of Example 34 of 0.67 μM, 0.33 μM and 0.17 μM; and .oval-solid. represents concentration of the DMSO compound. FIG. 2 depicts the Lineweaver-Burk plot of the specific activities obtained from SK&F96067, wherein .box-solid., .quadrature. and .largecircle. represent its respective concentrations of 3.0 μM, 1.5 μM, 0.75 μM; and .oval-solid. represents concentration of the DMSO compound. FIG. 3 illustrates the Lineweaver-Burk plot of the specific activities obtained from omeprazole, wherein .oval-solid. and .quadrature. represent its concentrations of 15 μM and 30 μM; and .largecircle. represents the concentration of DMSO.
# [4] = system: proton pump; conditions: background statement; cited from earlier work
"Ki ([3]; Lineweaver-Burk, versus K+, pH 7.0) [nM]",Compound,Relative Acid Output [1],Reversibility of the inhibition of the enzyme activity [2],Inhibition of H+/K+ ATPase activity after Dilution and Washout [2] [%],Inhibition of H+/K+ ATPase activity before Dilution and Washout [2] [%],Competitive inhibition with K+ at the K+ binding site of proton pump [3],Reversibility of the proton pump inhibition [4],Inhibition overcome by increasing the concentration of KCl ([3]; 15 and 30 μM),Reaction speed in comparison with the control values ([3]; 15 and 30 μM)
40,"COc1cccc2c(N3CCc4ccccc4C3C)nc(Nc3ccc(F)cc3C)nc12.Cl (stereo not shown) [Example 34, 8-Methoxy-2-(4-Fluoro-2-Methyl-Phenylamino)-4-(1-Methyl-1,2,3,4-Tetrahydroisoquinoline-2-Yl)Quinazoline Hydrochloride]",0.97,reversible,16,84,inhibited competitively with K^+,,,
,"COc1ccc2[nH]c([S+]([O-])Cc3ncc(C)c(OC)c3C)nc2c1 (stereo not shown) [Omeprazole, omeprazole, reference compound]",,irreversible,67,80,did not inhibit competitively,irreversible,not overcome by increasing the concentration of KCl,greatly reduced
